In US6423689B1, “Peptidyl calcium channel blockers” (Warner-Lambert Company, priority 1997, dated 2002):
pIC50: −log10 of the molar value.

Experiments:
[1] = molecular target: T1, N-type Ca2+ channels in IMR-32 cells (Homo sapiens, UniProt Q00975); assay: Inhibition of N-type calcium flux in IMR-32 cells (Indo-1 fluorescence, nitrendipine present); type: cell-based; settings: for inhibition at 1 µM / inhibition at 10 µM: IMR-32; for pIC50: IMR-32 cells, 5 μM nitrendipine, K+ depolarization
T1 construct: host or cells: IMR-32 cells, differentiated with dibutyryl cAMP and bromodeoxyuridine
Procedure, shortened: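 Differentiated IMR-32 cells (7–13 days) were loaded with 5 μM Indo-1 AM, preincubated with compound for 10 min at 30° C, and depolarized with KCl/CaCl2 stimulation solution, with 5 μM nitrendipine blocking L-channels. Peak-minus-basal 400/490 nm emission ratio was plotted against drug concentration, and IC50 came from four-parameter logistic fits.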

[2] = molecular target: T2, L-type Ca2+ channels in A10 cells (Rattus norvegicus, UniProt P22002); assay: Inhibition of L-type calcium flux in A10 cells (FLIPR); type: cell-based
T2 construct: which endogenously expresses L-type calcium channels; host or cells: A10 rat aortic smooth muscle cells
Procedure: Measurement of L-type Ca^2+ Channel Blocking Potencies of Compounds in A10 cells
Calcium flux through voltage-sensitive calcium channels was assessed by time-resolved monitoring of the fluorescence of pre-loaded calcium-sensitive dyes using FLIPR, a fluorescent image plate reader (Molecular Devices Co.). The A10 smooth muscle cell line derived from embryonic thoracic aorta of the DBIX rat (ATCC, CRL-1476) which endogenously expresses L-type calcium channels. The growth media for A10 cells was Ham's F12/DME high glucose (Irvine Scientific, 9052), supplemented with 20% fetal bovine serum (HyClone Labs, A-1115-L), and 1% each of L-glutamine and antibiotic-antimycotic (same source as above).
Cells were grown to confluency and replated on black-sided 96-well plates (Costar, 3603) for use in FLIPR. Two days after replating, growth media was removed and cells were loaded at 37° C. with 100 μL media containing 1 μM Oregon Green 488 Bapta-1 dye (Molecular Probes, O-6807) for 1 to 3 hours. The dye-containing media was then washed away with buffer (composition in mM: 1.25 CaCl2, 1.2 MgSO4, 11 glucose, 10 HEPES, 3.0 KCl, 137.0 NaCl, pH 7.4 with Tris base) in a Denley Cellwash (Labsystems, CW018B). The residual buffer volume was adjusted to 50 μL. A 5 minute drug-pre-incubation period at 35° C. was initiated when 50 μL of drug-containing buffer was pipetted into the cell plate with the 96-well pipettor integrated in the FLIPR apparatus. Fluorescent counts were monitored at 20 second intervals for 360 seconds, beginning 60 seconds prior to the delivery of drug-containing buffer. Following drug addition, 100 μL aliquots of a high K^+, depolarizing stimulus (composition in mM: 1.25 CaCl2, 1.2 MgSO4, 11 glucose, 10 HEPES, 140.0 KCl, pH 7.4 with Tris base) were added to each well and fluorescence was monitored at 1 second intervals for 120 seconds, beginning 10 seconds prior to the stimulus addition. CCD camera exposure time was 0.4 seconds, laser excitation was at 488 nm with a power of 0.2-0.5W, and a 510 to 560 nm bandpass interference filter preceded the camera.
Data was analyzed as a summation of fluorescent counts above basal during the stimulation period (an approximation of area under the curve), after normalizing the data with a spatial uniformity correction (for variations in laser illumination and cell density) and a negative control correction (zero calcium increase defined as the fluorescence reading in the presence of saturating pharmacologic block of the respective calcium channel). Drug effects were expressed as percent inhibition of fluorescence from an average of 8 K^+-stimulated wells which were pre-treated in the drug incubation period with buffer only.
In the A10 cells, the pharmacologic agent used to define zero calcium influx was nitrendipine (RBI, N-144), at a final concentration of 1.0×10^−6 M.

[3] = molecular target: T3, N-type Ca2+ channels in superior cervical ganglion (SCG) neurons (Rattus norvegicus, UniProt Q02294); assay: Whole-cell voltage clamp, N-type Ca2+ current in SCG neurons; type: cell-based
T3 construct: from tissue
T3 sequence (Q02294 whole entry): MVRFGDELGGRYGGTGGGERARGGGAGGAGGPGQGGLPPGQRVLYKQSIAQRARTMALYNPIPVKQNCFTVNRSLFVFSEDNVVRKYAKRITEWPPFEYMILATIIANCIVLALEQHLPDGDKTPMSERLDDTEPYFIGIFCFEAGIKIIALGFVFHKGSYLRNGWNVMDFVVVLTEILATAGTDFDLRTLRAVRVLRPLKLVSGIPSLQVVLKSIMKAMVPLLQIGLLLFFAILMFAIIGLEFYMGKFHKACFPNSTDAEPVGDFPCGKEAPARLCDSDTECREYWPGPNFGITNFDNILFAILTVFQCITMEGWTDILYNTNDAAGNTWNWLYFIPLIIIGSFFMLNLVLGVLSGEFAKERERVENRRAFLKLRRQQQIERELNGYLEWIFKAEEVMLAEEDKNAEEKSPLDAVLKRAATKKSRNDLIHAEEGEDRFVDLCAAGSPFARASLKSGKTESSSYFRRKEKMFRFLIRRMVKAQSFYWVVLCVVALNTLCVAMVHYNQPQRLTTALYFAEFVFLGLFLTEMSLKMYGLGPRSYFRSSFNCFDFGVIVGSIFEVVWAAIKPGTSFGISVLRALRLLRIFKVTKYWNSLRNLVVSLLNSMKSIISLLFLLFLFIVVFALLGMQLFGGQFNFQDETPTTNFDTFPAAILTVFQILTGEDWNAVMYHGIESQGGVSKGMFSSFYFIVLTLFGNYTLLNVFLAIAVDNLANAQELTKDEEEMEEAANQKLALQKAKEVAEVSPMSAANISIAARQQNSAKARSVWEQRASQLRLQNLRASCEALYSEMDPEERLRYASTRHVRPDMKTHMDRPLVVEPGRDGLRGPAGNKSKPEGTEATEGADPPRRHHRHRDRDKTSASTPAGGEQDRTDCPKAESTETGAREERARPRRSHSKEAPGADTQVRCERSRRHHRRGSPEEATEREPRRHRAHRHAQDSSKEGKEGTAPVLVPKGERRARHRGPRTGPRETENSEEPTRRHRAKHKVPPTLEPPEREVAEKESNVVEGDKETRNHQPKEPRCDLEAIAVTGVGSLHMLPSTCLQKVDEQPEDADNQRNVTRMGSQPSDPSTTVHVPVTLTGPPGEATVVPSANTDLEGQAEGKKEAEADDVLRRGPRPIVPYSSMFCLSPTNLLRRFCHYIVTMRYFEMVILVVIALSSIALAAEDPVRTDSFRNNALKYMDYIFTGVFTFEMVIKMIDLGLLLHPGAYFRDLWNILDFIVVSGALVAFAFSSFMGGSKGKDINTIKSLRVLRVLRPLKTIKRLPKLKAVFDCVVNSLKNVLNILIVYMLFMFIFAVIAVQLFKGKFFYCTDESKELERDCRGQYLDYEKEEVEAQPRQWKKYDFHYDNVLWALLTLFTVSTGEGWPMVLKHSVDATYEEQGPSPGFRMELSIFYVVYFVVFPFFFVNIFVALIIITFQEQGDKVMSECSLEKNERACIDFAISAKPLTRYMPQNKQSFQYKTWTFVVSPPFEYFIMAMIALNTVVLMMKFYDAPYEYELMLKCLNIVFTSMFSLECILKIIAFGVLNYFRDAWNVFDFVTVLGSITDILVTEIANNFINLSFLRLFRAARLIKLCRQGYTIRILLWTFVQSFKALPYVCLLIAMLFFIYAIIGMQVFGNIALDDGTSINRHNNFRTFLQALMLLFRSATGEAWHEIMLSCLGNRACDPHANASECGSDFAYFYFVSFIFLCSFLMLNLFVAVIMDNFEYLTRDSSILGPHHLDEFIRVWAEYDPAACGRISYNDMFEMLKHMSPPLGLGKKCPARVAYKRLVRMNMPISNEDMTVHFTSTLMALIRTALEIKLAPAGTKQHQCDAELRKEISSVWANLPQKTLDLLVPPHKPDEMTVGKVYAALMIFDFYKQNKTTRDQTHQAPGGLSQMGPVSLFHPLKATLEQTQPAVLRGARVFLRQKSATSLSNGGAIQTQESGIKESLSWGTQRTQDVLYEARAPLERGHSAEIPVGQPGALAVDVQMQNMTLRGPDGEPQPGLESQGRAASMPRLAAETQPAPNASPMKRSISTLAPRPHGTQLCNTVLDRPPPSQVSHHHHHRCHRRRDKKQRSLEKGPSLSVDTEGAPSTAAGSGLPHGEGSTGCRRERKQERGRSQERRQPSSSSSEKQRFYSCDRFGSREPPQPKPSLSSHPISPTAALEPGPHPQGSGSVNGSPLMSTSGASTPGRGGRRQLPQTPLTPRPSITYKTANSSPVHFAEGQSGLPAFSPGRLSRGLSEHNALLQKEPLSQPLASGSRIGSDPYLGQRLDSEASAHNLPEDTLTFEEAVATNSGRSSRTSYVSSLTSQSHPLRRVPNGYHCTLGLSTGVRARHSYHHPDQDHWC
T3 sequence (P54290 25-944 partner limits assumed): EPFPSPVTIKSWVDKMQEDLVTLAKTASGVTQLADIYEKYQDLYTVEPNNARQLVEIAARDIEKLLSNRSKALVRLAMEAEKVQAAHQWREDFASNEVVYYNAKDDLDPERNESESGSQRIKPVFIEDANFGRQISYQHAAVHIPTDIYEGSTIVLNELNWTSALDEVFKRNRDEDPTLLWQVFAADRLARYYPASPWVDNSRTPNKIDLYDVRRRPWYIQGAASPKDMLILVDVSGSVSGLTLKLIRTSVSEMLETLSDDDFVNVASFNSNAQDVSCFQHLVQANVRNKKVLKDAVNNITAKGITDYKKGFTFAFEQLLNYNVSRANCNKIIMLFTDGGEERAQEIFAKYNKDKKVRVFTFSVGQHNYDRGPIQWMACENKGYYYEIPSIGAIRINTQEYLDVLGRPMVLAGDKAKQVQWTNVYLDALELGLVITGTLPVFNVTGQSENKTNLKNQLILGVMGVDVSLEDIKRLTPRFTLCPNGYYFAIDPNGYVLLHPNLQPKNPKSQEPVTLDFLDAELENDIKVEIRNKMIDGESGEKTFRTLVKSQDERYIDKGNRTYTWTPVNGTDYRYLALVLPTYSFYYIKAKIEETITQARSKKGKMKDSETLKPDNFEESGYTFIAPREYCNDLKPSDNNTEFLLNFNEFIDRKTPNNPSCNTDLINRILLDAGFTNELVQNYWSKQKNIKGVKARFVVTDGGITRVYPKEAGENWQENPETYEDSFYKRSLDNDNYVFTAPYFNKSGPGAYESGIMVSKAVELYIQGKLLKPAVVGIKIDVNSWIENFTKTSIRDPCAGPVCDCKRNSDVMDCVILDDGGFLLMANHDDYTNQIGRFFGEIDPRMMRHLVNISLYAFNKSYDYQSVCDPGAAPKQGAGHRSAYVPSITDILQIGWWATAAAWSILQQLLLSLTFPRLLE
T3 sequence (P54290 945-1091 partner limits assumed): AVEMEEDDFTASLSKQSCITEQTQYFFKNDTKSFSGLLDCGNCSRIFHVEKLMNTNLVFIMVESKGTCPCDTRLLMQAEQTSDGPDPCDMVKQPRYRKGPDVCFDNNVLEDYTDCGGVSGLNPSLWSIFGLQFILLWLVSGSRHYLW
T3 sequence (P54287 whole entry partner): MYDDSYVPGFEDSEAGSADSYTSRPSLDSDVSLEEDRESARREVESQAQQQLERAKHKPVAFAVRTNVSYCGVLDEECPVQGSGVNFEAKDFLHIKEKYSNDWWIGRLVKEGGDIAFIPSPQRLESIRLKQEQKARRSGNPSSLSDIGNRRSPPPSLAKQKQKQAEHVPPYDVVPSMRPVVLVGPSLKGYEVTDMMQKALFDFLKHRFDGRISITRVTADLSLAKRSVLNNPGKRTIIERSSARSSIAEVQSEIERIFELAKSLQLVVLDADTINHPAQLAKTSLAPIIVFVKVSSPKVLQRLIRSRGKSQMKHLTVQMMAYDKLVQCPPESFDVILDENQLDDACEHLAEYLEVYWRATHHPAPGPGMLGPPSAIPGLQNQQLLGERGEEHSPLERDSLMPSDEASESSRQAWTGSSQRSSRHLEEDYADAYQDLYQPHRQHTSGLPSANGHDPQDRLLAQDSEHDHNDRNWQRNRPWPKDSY
Procedure, shortened: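 Whole-cell voltage clamp of acutely trypsin-dissociated rat SCG neurons, with TEA/choline external solution (2 mM Ca2+) and Cs-methanesulfonate pipette solution. Currents evoked by 150 ms steps to +20 mV from −65 to −55 mV holding, every 40 s; compounds applied locally, effect as % inhibition of control amplitude.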

[4] = tested on: K+ channels in superior cervical ganglion (SCG) neurons; assay: Whole-cell voltage clamp, K+ current in SCG neurons; type: cell-based, rat; settings: 10 μM
Procedure, shortened: (§1)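 Acutely dissociated (trypsin) SCG neurons under whole-cell voltage clamp, external NaCl/KCl/HEPES buffer pH 7.4, K-gluconate/KCl pipette. From holding potential −65 to −55 mV, 35 msec steps every 10 sec to 0 mV (peak Na+ current) or +50 mV (sustained K+ current); compounds perfused locally to steady-state block, reported as percent inhibition of control.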

[5] = tested on: Na+ channels in superior cervical ganglion (SCG) neurons; assay: Whole-cell voltage clamp, Na+ current in SCG neurons; type: cell-based, rat; settings: 10 μM
Procedure, shortened: as §1

Structure (SMILES) | pIC50 [2] | melting point | inhibition at 1 µM [1] | inhibition at 10 µM [1] | also measured
COc1cc(NC(=O)N[C@@H](CC(C)C)C(=O)N[C@@H](Cc2ccc(OCc3ccccc3)cc2)C(=O)OC(C)(C)C)cc(OC)c1OC (relative stereo) [Example 67, [S-(R*,R*)]-3-(4-Benzyloxy-phenyl)-2-{4-methyl-2-[3-(3,4,5-trimethoxy-phenyl)-ureido]-pentanoylamino}-propionic acid tert-butyl ester] | 5.52 | – | – | – | Inhibition of Calcium Flux in IMR-32 Cells % Inhibition at 1 μM ([1]; 1 μM): 10%; Inhibition of Calcium Flux in IMR-32 Cells % Inhibition at 10 μM ([1]; 10 μM): 19%
CC(C)C[C@H](NC(=O)N1CCCCCC1)C(=O)N[C@](C)(Cc1ccc(OCc2ccccc2)cc1)C(=O)OC(C)(C)C [Example 11B, 2(R)-{2(S)-[(Azepane-1-carbonyl)-amino]-4-methyl-pentanoylamino}-3-(4-benzyloxy-phenyl)-2-methyl-propionic acid tert-butyl ester] | – | 62 to 66 °C | 35% | 80% | inhibition at 10 µM [3]: 17%; pIC50 [1]: 5.64; Inhibition of K+ Current, % Inhibition at 10 μM [4]: 46%; Inhibition of Na+ Current, % Inhibition at 10 μM [5]: 48%
CC(C)C[C@H](NC(=O)N1CCCCCC1)C(=O)N[C@@H](Cc1ccc(OC(C)(C)C)cc1)C(=O)OC(C)(C)C [Example 12, [S-(R*,R*)]-2-{2-[(Azepane-1-carbonyl)-amino]-4-methyl-pentanoylamino}-3-(4-tert-butoxy-phenyl)-propionic acid tert-butyl ester] | – | 87 to 90 °C | 57% | 95% | inhibition at 10 µM [3]: 65%; pIC50 ([3]; read-out: Inhibition of N-type Ca2+ Current IC50): 5.17; pIC50 [1]: 6.32; Inhibition of K+ Current, % Inhibition at 10 μM [4]: 38%; Inhibition of Na+ Current, % Inhibition at 10 μM [5]: 14%
CC(C)C[C@H](NC(=O)N1CCCCCC1)C(=O)N[C@@H](Cc1ccc(NCc2ccccc2)cc1)C(=O)NC(C)(C)C [Example 132, [S-(R*,R*)]-Azepane-1-carboxylic acid {1-[2-(4-benzylamino-phenyl)-1-tert-butylcarbamoyl-ethylcarbamoyl]-3-methyl-butyl}-amide] | 6.04 | 89 to 90 °C | 37% | 83% | pIC50 [1]: 6.05
CC(C)C[C@H](NC(=O)N1CCCCCC1)C(=O)N[C@@H](Cc1ccc(C=CC2(O)CCCCC2)cc1)C(=O)NC(C)(C)C [Example 143, [S-(R*,R*)]-Azepane-1-carboxylic acid [1-(1-tert-butylcarbamoyl-2-{4-[2-(1-hydroxy-cyclohexyl)-vinyl]-phenyl}-ethylcarbamoyl)-3-methyl-butyl]-amide] | 5.89 | 125 °C (dec.) | 7% | 58% | –
CC(C)C[C@H](NC(=O)N1CCCCCC1)C(=O)N[C@@H](Cc1ccc(CCc2ccccc2)cc1)C(=O)NC(C)(C)C [Example 144, [S-(R*,R*)]-Azepane-1-carboxylic acid {1-[1-tert-butylcarbamoyl-2-(4-phenethyl-phenyl)-ethylcarbamoyl]-3-methyl-butyl}-amide] | 6.26 | 155 to 156 °C | 61% | 86% | –
CC(C)C[C@H](NC(=O)N1CCCCCC1)C(=O)N[C@@H](Cc1ccc(CCCN2CCS(=O)(=O)CC2)cc1)C(=O)NC(C)(C)C [Example 150, [S-(R*,R*)]-Azepane-1-carboxylic acid [1-(1-tert-butylcarbamoyl-2-{4-[3-(1,1-dioxo-1l,6-thiomorpholin-4-yl)-propyl]-phenyl}-ethylcarbamoyl)-3-methyl-butyl]-amide] | 5.52 | 92 to 93 °C | – | – | –
CC(C)C[C@H](NC(=O)N1CCCCCC1)C(=O)N[C@@H](Cc1ccc(OCc2ccccc2)cc1)C(=O)NCCN1CCOCC1 [Example 186, [S-(R*,R*)]-Azepane-1-carboxylic acid {1-[2-(4-benzyloxy-phenyl)-1-(2-morpholin-4-ylethylcarbamoyl)-ethylcarbamoyl]-3-methyl-butyl}-amide] | 5.52 | – | – | – | pIC50 [1]: 5.74

More lines, main results first:

pIC50 [2] | melting point | inhibition at 1 µM [1] | inhibition at 10 µM [1] | Structure (SMILES) | also measured
6.85 | 165 to 166 °C | 61% | 89% | CC(C)C[C@H](NC(=O)N1CCCCCC1)C(=O)N[C@@H](Cc1ccc(Cc2ccccc2)cc1)C(=O)NC(C)(C)C [Example 53, [S-(R*,R*)]-Azepane-1-carboxylic acid {1-[2-(4-benzyl-phenyl)-1-tert-butylcarbamoyl-ethylcarbamoyl]-3-methyl-butyl}-amide] | –
6.17 | 180 to 181 °C | 43% | 71% | CC(C)C[C@H](NC(=O)N1CCCCCC1)C(=O)N[C@@H](Cc1ccc(C#CC(C)(C)C)cc1)C(=O)NC(C)(C)C [Example 135, [S-(R*,R*)]-Azepane-1-carboxylic acid (1-{1-tert-butylcarbamoyl-2-[4-(3,3-dimethyl-but-1-ynyl)-phenyl]-ethylcarbamoyl}-3-methyl-butyl)-amide] | –
5.81 | 171 to 172 °C | 45% | 64% | CC(C)C[C@H](NC(=O)N1CCCCCC1)C(=O)N[C@@H](Cc1ccc(C#CC2CCCCC2)cc1)C(=O)NC(C)(C)C [Example 136, [S-(R*,R*)]-Azepane-1-carboxylic acid {1-[1-tert-butylcarbamoyl-2-(4-cyclohexylethynyl-phenyl)-ethylcarbamoyl]-3-methyl-butyl}-amide] | –
5.59 | – | – | – | CC(C)C[C@H](NC(=O)N1CCCCCC1)C(=O)N[C@@H](Cc1ccc(C#Cc2ccccn2)cc1)C(=O)NC(C)(C)C [Example 137, [S-(R*,R*)]-Azepane-1-carboxylic acid {1-[1-tert-butylcarbamoyl-2-(4-pyridin-2-ylethynyl-phenyl)-ethylcarbamoyl]-3-methyl-butyl}-amide] | –
5.52 | 117 to 118 °C | – | – | CC(C)C[C@H](NC(=O)N1CCCCCC1)C(=O)N[C@@H](Cc1ccc(C#CCN2CCS(=O)(=O)CC2)cc1)C(=O)NC(C)(C)C [Example 140, [S-(R*,R*)]-Azepane-1-carboxylic acid [1-(1-tert-butylcarbamoyl-2-{4-[3-(1,1-dioxo-1l,6-thiomorpholin-4-yl)-prop-1-ynyl]-phenyl}-ethylcarbamoyl)-3-methyl-butyl]-amide] | –
6.17 | 168 to 169 °C | – | – | CC(C)C[C@H](NC(=O)N1CCCCCC1)C(=O)N[C@@H](Cc1ccc(/C=C\C2CCCCC2)cc1)C(=O)NC(C)(C)C [Example 142, [S-(R*,R*),Z]-Azepane-1-carboxylic acid (1-{1-tert-butylcarbamoyl-2-[4-(2-cyclohexyl-vinyl)-phenyl]-ethylcarbamoyl}-3-methyl-butyl)-amide] | –
6.60 | 180 to 181 °C | 48% | – | CC(C)C[C@H](NC(=O)N1CCCCCC1)C(=O)N[C@@H](Cc1ccc(CCC(C)(C)C)cc1)C(=O)NC(C)(C)C [Example 145, [S-(R*,R*)]-Azepane-1-carboxylic acid (1-{1-tert-butylcarbamoyl-2-[4-(3,3-dimethyl-butyl)-phenyl]-ethylcarbamoyl}-3-methyl-butyl)-amide] | –
